This note sets out measurements from the METLIN SMRT retention time set (Domingo-Almenara et al. 2019).

The nature of this series: gradient 5% acetonitrile 3 min, to 50% in 2 min, to 85% in 15 min, held 3 min, 100 µL/min. To be noted: column: Zorbax Extend-C18 2.1 x 50 mm; eluents: water / acetonitrile, 0.1% formic acid. The essentials: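 Pure standards were analyzed in mixtures of ~100 molecules using HPLC coupled to a quadrupole time-of-flight mass spectrometer, in both positive and negative ionization mode. Separation used a Zorbax Extend-C18 column (2.1 × 50 mm, 1.8 μm) at 100 μL/min, with water and acetonitrile each containing 0.1% formic acid. Dead and dwell volumes were 40 μL and 900 μL, and data were collected over 3 months. Retention time was read from computationally picked adduct peaks, each inspected manually.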
Regarding `O=c1n(Cc2cccc(Br)c2)nc2c(S(=O)(=O)N3CCCC3)cccn12`, the RP-LC retention time came to 887 s.
For `Cc1ccc(NC(=O)Nc2ccc3nc(N4CCN(C)CC4)cc(C)c3c2)cc1Cl` the value was 640 s; for `Cc1ccc(CNC(=O)C2CCN(S(=O)(=O)c3ccc4c(c3)NC(=O)CO4)CC2)cc1`, 794 s; for `CCCCOc1ccc(C(=O)Nc2cccc(C)n2)cc1`, 840 s.
For `O=C(CCCc1nc(-c2ccccc2)no1)Nc1nc(-c2ccccc2)cs1` the value was 1080 s.
As to `CCOc1ccc(NC(=O)c2cc(C(C)C)n(C3CCS(=O)(=O)C3)n2)cc1` (stereo not given), the RP-LC retention time was determined as 877 s.
The molecule `Cc1cccc(N2CCN(C(=O)c3cn(-c4ccc(NC(=O)C5CC5)cn4)cn3)CC2)c1C` had an RP-LC retention time of 901 s.
For `Cc1ccc(C(=O)CC2(O)C(=O)Nc3ccccc32)cc1C` (stereo not given) the value was 751 s; for `CS(=O)(=O)N1CCC(C(=O)Nc2ccc(F)c(Cl)c2)Oc2ccccc21` (stereo not given), 986 s.
For `CCS(=O)(=O)c1ccc2c(c1)N(Cc1nc(-c3ccc(C)cc3)no1)C(=O)CO2` the value was 945 s; for `CCCn1ccc2sc(C)c(C(=O)NCc3cc(OC)ccc3OC)c2c1=O`, 889 s.
The molecule `CN(C)c1nccnc1OC1CCN(C(=O)C2CCOCC2)C1` (stereo not given) showed an RP-LC retention time of 605 s.
`COc1ccc(S(=O)(=O)N2CCc3nn(C)c(=O)n3CC2)cc1Cl` came in with an RP-LC retention time of 710 s.
The molecule `Cc1nc(-c2noc(-c3cccnc3)n2)cn1CC(=O)NCc1cccs1` displayed an RP-LC retention time of 662 s.
For `O=C(NCc1cc(F)ccc1F)C1CCN(C(=O)c2ncn3c2COC(c2ccc(F)cc2)C3)CC1` (stereo not given), the RP-LC retention time was found to be 802 s.
For `O=C(c1cc(Cl)ccc1Cl)N1CCN(c2cc(-c3ccccc3)[nH]n2)CC1` the value was 882 s; for `O=C(NCc1ccc(F)cc1)C1CCN(c2cc(N3CCSCC3)ncn2)CC1`, 666 s.
For `O=C(NC1CCc2ccccc21)C1CCN(C(=O)c2ncn3c2COC(c2ccccc2)C3)CC1` (stereo not given) the value was 809 s; for `CC(NC(=O)c1ccc2ncnc(N3CCCCC3)c2c1)c1ccc(F)cc1` (stereo not given), 687 s; for `CC(C)NC(=O)Nc1cccc(Cl)c1`, 854 s.
For `CC1CCN(C(=O)C2CCN(S(C)(=O)=O)c3cc(Cl)ccc3O2)CC1` (stereo not given) the value was 922 s; for `CN1CCN(c2ccc(CNC(=O)C3CCc4sc(C(=O)N(C)C)cc4C3)cc2)CC1` (stereo not given), 576 s; for `CCOc1ccc(N2CCn3c2nn(CC(=O)c2ccc(OC)cc2)c(=O)c3=O)cc1`, 773 s.
Take `Cc1cccc(OCc2nc(CCN(C)C(=O)NC3CCCC3)no2)c1`: the RP-LC retention time stood at 894 s.
For `COc1ccc(S(=O)(=O)c2cnc3cc4c(cc3c2N2CCN(C)CC2)OCCO4)cc1` the value was 608 s.
For `CCCn1nc(CNC(=O)COc2ccccc2)c2ccccc21` the value was 900 s; for `COc1ccc2[nH]cc(CCNC(=O)Cn3nc(C)c4nn(-c5ccccc5)c(C)c4c3=O)c2c1`, 817 s.
Molecule `Cc1ccc(-c2cn3ccn(-c4ccc(F)cc4)c(=O)c3n2)c(C)c1` gave an RP-LC retention time of 873 s.
For `Cc1cccc(-c2ncccc2CNS(=O)(=O)Cc2ccccc2)c1` the value was 684 s; for `CCn1cc(C(=O)Nc2ccccc2)c2cccnc21`, 798 s; for `CCC(C(=O)NCCc1c(C)noc1C)n1c2ccccc2c2cnn(C)c(=O)c21` (stereo not given), 739 s.
Molecule `CCn1nc(N2CCCC(NS(=O)(=O)c3c(C)nn(C)c3C)C2)ccc1=O` (stereo not given) gave an RP-LC retention time of 642 s.
For `CCCC1OC(c2cc3c(cc2Cl)OCO3)OCC1CC` (stereo not given) the value was 1070 s.
For `Cc1ccccc1-c1nc(C2CCN(S(=O)(=O)c3ccccc3)CC2)no1` the value was 1140 s; for `Cc1sc(C)c(S(=O)(=O)NCc2ccc(N(C)C)cc2)c1-c1cc(C(F)(F)F)on1`, 960 s.
For `CC1(C(=O)NCc2ccccc2)CCCN(C(=O)Nc2cccc(Cl)c2)C1` (stereo not given) the value was 966 s; for `CC1=C(c2ccc(F)cc2)S(=O)(=O)N=C1N1CCCN(C(=O)C2CCCC2)CC1`, 828 s; for `Cc1nnc2c(=O)n(CC(=O)NCc3ccc(N(C)C)cc3)c3cccnc3n12`, 570 s.
In turn, `Cc1cccc(-c2nnc(C)c(N3CCCC3)n2)c1` returned an RP-LC retention time of 656 s.
For the molecule `O=C(CN1C(=O)C(C(=O)N2CCCCCC2)Sc2ccccc21)N1CCN(c2ccccn2)CC1` (stereo not given), the RP-LC retention time was 650 s.
The molecule `CCOCCCNC(=O)N1CCCCCC1c1ccc(C)cc1` (stereo not given) came in with an RP-LC retention time of 954 s.
Turning to `COc1ccccc1N1CCN(C(=O)C2CCN(c3c(C)n(C)c(=O)n(C)c3=O)CC2)CC1`, the RP-LC retention time is 718 s.
In turn, `Cc1ccc(-c2nc3n(CC(=O)NC(C)C)c4c(c(=O)n3n2)CCC4)cc1` gave an RP-LC retention time of 733 s.
For `Cc1ccc(CNC(=O)N2CCc3c(c(-c4nc(C5CC5)no4)nn3C)C2)cc1` the value was 828 s.
`COc1cc(NC(=O)NC2CCN(c3cc(N4CCOCC4)cnn3)C2)cc(OC)c1` (stereo not given) had an RP-LC retention time of 629 s.
For `CC(C)CCN1CCC(N(Cc2cccnc2)C2CCOCC2)CC1` the value was 551 s.
In turn, `CCCN(CCC)C(=O)C(CCC(=O)O)NC(=O)c1ccccc1` (stereo not given) had an RP-LC retention time of 822 s.
For `Cc1cccc(-n2c(=O)c3c(cc(C)n3C)n(CC(=O)Nc3cccc(Cl)c3C)c2=O)c1` the value was 960 s; for `CCN1CCCCc2cc(C(=O)NCC(N)=O)sc21`, 679 s; for `COc1ccc(Cl)cc1S(=O)(=O)NCCc1cn(C)c2ncccc12`, 764 s.
For `COc1cccc2cc(C(=O)Nc3nc(C)cs3)oc12` the value was 804 s; for `CCOc1ccc(NC(=O)C2CCCN(S(=O)(=O)c3cc(-c4noc(C)n4)cs3)C2)cc1` (stereo not given), 982 s; for `CCc1nnc([C@@H]2CC(F)(F)CN2C(=O)c2coc(C)n2)o1`, 678 s.
For `Cc1nc(-c2csc(S(=O)(=O)N3CCC(C(=O)Nc4ccc(F)c(Cl)c4)CC3)c2)no1` the value was 1010 s; for `COc1ccccc1C(=O)Nc1ccc2nc(N3CCN(C4CCCCC4)CC3)cc(C(=O)O)c2c1`, 638 s; for `CCCCN1C(=O)CN(S(=O)(=O)c2ccc(C)cc2)CC1(C)C(=O)NCc1ccccc1` (stereo not given), 974 s.
`CCn1cc(S(=O)(=O)N2C[C@@H](C(N)=O)[C@H](c3n[nH]c(C)n3)C2)cn1` had an RP-LC retention time of 576 s.
Turning to `O=C(c1ccsc1)N1[C@H]2CC[C@@H]1c1cnc(-c3ccc(F)cc3)nc1C2`, the RP-LC retention time is 952 s.
With `Cc1ccc(OCC(=O)Nc2cc3[nH]c(=O)[nH]c3cc2C)cc1`, the RP-LC retention time was 698 s.
For `CCOc1ccccc1NC(=O)C1CCN(S(=O)(=O)c2cn(C(C)C)cn2)CC1` the value was 846 s; for `Cc1sc(NC(=O)Cc2csc(-c3ccccc3)n2)nc1-c1ccc(F)cc1`, 1200 s; for `CCN1CCN(c2ccc(NC(=O)c3ccc(Cl)cc3)cn2)C1=O`, 775 s.
For `CCN1CCN(c2c(C(=O)c3ccccc3)cnc3cc4c(cc23)OCO4)CC1` the value was 563 s; for `CCc1ccccc1NC(=O)N1CCC(OC2CCN(S(C)(=O)=O)CC2)CC1`, 770 s; for `Cc1ccc(-c2noc(Cc3nc(-c4ccc(Cl)cc4)cs3)n2)cc1`, 1040 s.
For the molecule `Cc1c(C(=O)N2CC(C)CC(C)C2)sc2ncn(CC(=O)N3CCC(C)CC3)c(=O)c12` (stereo not given), the RP-LC retention time was 891 s.
For `CC(=O)NCCSc1c(-c2ccc(Cl)cc2)[nH]c2ccccc12` the value was 800 s; for `CN(CCc1noc(-c2ccc(C(=O)NC3CCCC3)cc2)n1)C(=O)c1ccccc1F`, 839 s.
The molecule `Cc1nnc(NC(=O)Cc2csc(Nc3ccc(OC(F)(F)F)cc3)n2)s1` returned an RP-LC retention time of 790 s.
For `O=C(Cn1c(=O)c2cc(C3CC3)nn2c2ncccc21)Nc1ccc(F)cc1F` the value was 779 s; for `CCN1CCCCc2cc(C(=O)NCC3CCN(CC(C)C)C3)sc21` (stereo not given), 718 s; for `Cc1cc(NC(=O)Nc2cccc3ccccc23)no1`, 896 s.
Molecule `Cc1ccccc1Nc1c(-c2ccccc2)nc2ccc(Cl)cn12` had an RP-LC retention time of 869 s.
`Cc1noc(C2CN(C(=O)CCC3CCCC3)CC23CCOCC3)n1` (stereo not given) came in with an RP-LC retention time of 814 s.
For `Cc1sc(NC(=O)CCn2c(=O)sc3ccccc32)nc1-c1ccc(Cl)cc1` the value was 1110 s.
For `CCCn1cc(CCNC(=O)c2cc(F)cc(F)c2)c2cccnc21` the value was 820 s; for `O=C(NCC1CCN(c2ncccn2)CC1)c1ccc(Br)o1`, 647 s.
For `CCN(CC)C(=O)c1ccc2c(c1)N(CC(=O)NCCC1=CCCCC1)C(=O)CS2` the value was 864 s.
`Cc1ccc(-c2noc(Cn3cnc4c(oc5ccccc54)c3=O)n2)cc1`: the RP-LC retention time came out at 999 s.
In the case of `O=C(Nc1ccc(C2=NCCCN2)cc1)Nc1ccc(C2=NCCCN2)cc1`, the RP-LC retention time was 581 s.
